Data published in publication PMC4696656, “Insights into the Mechanism of Action of Bactericidal Lipophosphonoxins” (PLoS ONE, 2015).
In brackets after ≈: the same amount, converted by molar mass.

Legend:
[1] = system: Enterococcus faecalis CCM 4224; experiment: MIC, standard microdilution method; conditions: CCM4224, 24 h
Solubility in water = format: physicochemical
[2] = system: Bacteroides fragilis CCM 4712; experiment: MIC against anaerobic bacteria, tube dilution method; format: cell-based; conditions: CCM4712, anaerobic conditions, 35°C, 48 h (confirmed 72 h)
[3] = system: Enterococcus faecalis CCM 4224; experiment: Induction of resistance by repeated passages, MIC after each step; format: cell-based
[4] = Carboxyfluorescein leakage assay, LUV from erythrocyte lipids; format: biochemical, human; conditions: LPPO 0.8 mg/L, 60 μM phospholipid, 25°C
Procedure: After evaporation of the solvent in vaccuo at 40°C, the phospholipids were dissolved in chloroform, filtered through glass fiber filters (Whatman) and concentrated under a stream of nitrogen. The lipid samples were stored at -80°C and used for liposome preparation. Vesicles to be used in the carboxyfluorescein (CF) leakage assay were prepared by mixing the appropriate amount of lipids (1 mg/ml) with chloroform/methanol 2:1 (v/v). The solvent was subsequently evaporated under a nitrogen gas stream obtaining a thin film on the walls of a glass tube. […] The release of vesicle contents after adding LPPO solutions was evaluated by the increased fluorescence intensity of CF released into the milieu which we express as the percentage of leakage. […] Maximum release of CF fluorescence (F max) was induced by lysing the vesicles with 0.1% (v/v) Triton X-100. Fluorescence intensity was monitored in time (excitation at 480 nm, emission at 515 nm) at 25°C using FluoroMax-3 (Jobin Yvon, Horriba) spectrofluorometer. The following equation was used to calculate the percent of CF leakage: % CF leakage = [(F–F 0)/(F max−F 0)] × 100, where F is the actual fluorescence intensity and F 0 is the fluorescence intensity before addition of the permeabilizing agent. […]

[5] = Stability at different pH (LC-MS); format: physicochemical; conditions: pH 0.18, 5.00 and 8.80; 50 μM and 500 μM; room temperature and 37°C; 24 hours
Procedure: Stability experiments were carried out at two concentrations and three pH values. Concentrations were 500 μmol/l (50 μl of 10 mM stock solution were dissolved in buffers of specific pH to a final volume of 1 ml) and 50 μmol/l (10 μl of stock solution were dissolved in buffers of specific pH to a final volume of 2 ml); pH: 0.18 (0.5 M HCl), 5 (0.1M NH4Ac adjusted with acetic acid), and 8.8 (0.1M NH4Ac adjusted with NaOH). The experiments were conducted at room temperature and 37°C, respectively. Samples were injected onto HPLC machine at different time points to assess the levels of decomposition. Time points: 0.5; 1; 3.5; 24 hrs. HPLC analytical parameters: Method: 0–100% B in 5 min, 100% C in 15 min, hold to 20 min. A = 25 mM NH4Ac, B = 25 mM NH4Ac in 50% MeCN, C = MeCN. Column: PFP, 100 x 4.6 mm, 3 um. Injection: 10 μl for 500 μM. Injection: 50 μl for 50 μM. Detection: PDA 210–400 nm; MS TIC 200–800 m/z.

Caco-2 monolayers = experiment: Transepithelial transport in Caco-2 monolayers; format: in vitro ADME; conditions: 3 h incubation
[6] = CCM4224, read-out: MIC after induction step, step 1
[7] = CCM4224, read-out: MIC after induction step, step 2
[8] = CCM4224, read-out: MIC after induction step, step 3
[9] = CCM4224, read-out: MIC after induction step, step 4
[10] = CCM4224, read-out: MIC after induction step, step 5
[11] = CCM4224, read-out: MIC after induction step, step 6
[12] = CCM4224, read-out: MIC after induction step, step 7
[13] = CCM4224, read-out: MIC after induction step, step 8
[14] = CCM4224, read-out: MIC after induction step, step 9
[15] = CCM4224, read-out: MIC after induction step, step 10
[16] = CCM4224, read-out: MIC after induction step, step 11
[17] = CCM4224, read-out: MIC after induction step, step 12
[18] = CCM4224, read-out: MIC after induction step, step 13
[19] = CCM4224, read-out: MIC after induction step, step 14

Structure (SMILES)	MIC [1]	solubility (Solubility in water)	MIC [2]	MIC [3, 6]	MIC [3, 7]	MIC [3, 8]	MIC [3, 9]	MIC [3, 10]	MIC [3, 11]	MIC [3, 12]	MIC [3, 13]	MIC [3, 14]	MIC [3, 15]	MIC [3, 16]	MIC [3, 17]	MIC [3, 18]	MIC [3, 19]	CF release, % of the maximum (Triton X-100) [4]	also measured
CCCCCCCCCCCCCCCCOCCCOP(=O)(CCN1C[C@@H](O)[C@H](O)C1)OC[C@H]1O[C@@H](n2ccc(=O)[nH]c2=O)[C@H](O)[C@@H]1O (stereo partly drawn) [DR5047]	6.25 µg/mL (≈ 8.68 µM)	> 10000 µg/mL	6.25 µg/mL (≈ 8.68 µM)	12.5 µg/mL (≈ 17.4 µM)	12.5 µg/mL (≈ 17.4 µM)	12.5 µg/mL (≈ 17.4 µM)	12.5 µg/mL (≈ 17.4 µM)	25 µg/mL (≈ 34.7 µM)	25 µg/mL (≈ 34.7 µM)	25 µg/mL (≈ 34.7 µM)	25 µg/mL (≈ 34.7 µM)	25 µg/mL (≈ 34.7 µM)	50 µg/mL (≈ 69.5 µM)	25 µg/mL (≈ 34.7 µM)	25 µg/mL (≈ 34.7 µM)	25 µg/mL (≈ 34.7 µM)	25 µg/mL (≈ 34.7 µM)	4%	–
CCCCCCCCCCCCCCCCOP(=O)(CCN1C[C@@H](O)[C@H](O)C1)OC[C@H]1O[C@@H](n2ccc(=O)[nH]c2=O)[C@H](O)[C@@H]1O (stereo partly drawn) [DR5026]	3.12 µg/mL (≈ 4.72 µM)	> 10000 µg/mL	12.5 µg/mL (≈ 18.9 µM)	6.2 µg/mL (≈ 9.37 µM)	6.2 µg/mL (≈ 9.37 µM)	6.2 µg/mL (≈ 9.37 µM)	6.2 µg/mL (≈ 9.37 µM)	6.2 µg/mL (≈ 9.37 µM)	12.5 µg/mL (≈ 18.9 µM)	12.5 µg/mL (≈ 18.9 µM)	12.5 µg/mL (≈ 18.9 µM)	12.5 µg/mL (≈ 18.9 µM)	12.5 µg/mL (≈ 18.9 µM)	12.5 µg/mL (≈ 18.9 µM)	12.5 µg/mL (≈ 18.9 µM)	12.5 µg/mL (≈ 18.9 µM)	12.5 µg/mL (≈ 18.9 µM)	8%	stability (decomposition by LC-MS) [5]: no detectable decomposition; compound in the Caco-2 cell lysate (Caco-2 monolayers): No compound was detected; compound at the basolateral (acceptor) side (Caco-2 monolayers; apical to basolateral): No compound was detected
